Results on three molecules are retold here after patent US20070238649A1, “Agents for Regulating Adiponectin Receptor Expression” (priority 2004, published 2007).

The nature of test [1]: Plasma insulin and plasma glucose in STZ-treated mice without or with insulin. The class given is in vivo. An excerpt: Animals Fifteen-week-old ob/ob mice and their wild-type C57BL/6 mice were obtained from CharlesRiver Breeding Laboratories (Wilmington, Mass.). Male mice were housed in colony cages, maintained on a 12-h light/12-h dark cycle. Our high-fat diet contains oil 1152 g (from Benibana, Japan; safflower oil [high-oleic type] contained 46% oleic acid (18:1n-9) and 45% linoleic acid (18:2n-6) from total fatty acids), casein 1191.6 g (Oriental Yeast, Tokyo, Japan, No.19), sucrose 633.6 g (Oriental Yeast, No. 13), vitamin mix 50.4 g (Oriental Yeast, No. 20 (AIN76), mineral mix 352.8 g (Oriental Yeast, No.25 (AIN76), cellulose powder 201.6 g (Oriental Yeast, No.19), DL-methionine 18 g (Wako Pure Chemicals, Osaka, Japan), water 360 ml; total 3600 g (20). Plasma insulin was measured by an insulin immunoassay (Shibayagi, Gunma, Japan). The animal care and procedures were approved by the Animal Care Committee of the University of Tokyo.
(§1) STZ Treatments Diabetes was induced by a double intraperitoneal injection of 0.2-0.3 ml of 50 mM sodium citrate solution (pH 4.5) containing STZ (200 mg/kg body weight). Control (non-STZ) mice were injected with 50 mM sodium citrate solution (pH 4.5). Three days after injection, plasma glucose levels were checked and diabetes was confirmed (glucose level >250 mg/dl). A combination of human regular insulin (1 units/kg; Eli Lilly, Indianapolis, Ind.), each given in 0.2 ml of saline was administered to the STZ+ insulin group. The mice in the STZ+ vehicle and non-STZ groups received 0.2 ml of saline injected both intraperitoneally. After injection of INS or saline, the animals were fasted for 6 h and then hindlim's skeletal muscles were removed.

A further test concerns AdipoR1 mRNA. Nature of the test: AdipoR1 mRNA in skeletal muscle of STZ-treated mice (real-time PCR). The class given is in vivo. The conditions noted are these: FIG. 2C. Here is the method:
as §1
(§2) Quantitative analysis of AdipoR1 and R2 transcripts by Northern blot and Real-time PCR Total RNA was prepared from cells or tissues with TRIzol (GIBCO/BRL) according to the manufacturer's instructions. For quantification of AdipoRs mRNAs, we employed the real-time PCR method (14). The primer sets and the probes for mAdipoR1,2 were as follows; the forward primer for mAdipoR1 was […], the reverse primer, […] and the probe, […]; the forward primer for mAdipoR2 was […], the reverse primer, […] and the probe, […]. The relative amount of each AdipoR transcript was normalized to the amount of actin transcript in the same cDNA (14).
On the technique in general: In qPCR the cycle at which signal appears reflects the starting amount.

Another test concerns AdipoR2 mRNA. Nature of the test: AdipoR2 mRNA in skeletal muscle of STZ-treated mice (real-time PCR). It counts as in vivo. Particulars: FIG. 2D. Here is the method: as §1, §2
A further test has as its system AMPK. As to the kind of experiment: Adiponectin tolerance test: AMPK phosphorylation in skeletal muscle (Western blot). It counts as in vivo, mice. The conditions noted are these: 50 μg/10 g body weight, 5 min, FIGS. 5C, 5D. Here is the method: Generation of recombinant adiponectin, adiponectin tolerance test and Western blot analysis Bacterially expressed murine full-length adiponectin (Ad) was generated as previously described (10, 14). […] Skeletal muscles were isolated 5 min after adiponectin injection. Phosphorylation and amount of AMPK in keletal muscles were determined (10, 14).
On the technique in general: A western blot detects proteins with antibodies after separation by electrophoresis.

For test [2], the system named is membrane fractions of skeletal muscle. Nature of the test: [125I]adiponectin binding assay on membrane fractions of skeletal muscle. Particulars: wild-type vs ob/ob mice; FIGS. 5A, 5B. Here is the method: Binding Assay Synthetic adiponectin was ^125I-labeled at Tyr by IODO-beads (Pierce) in the presence of Na^125I (2,000 Ci/mmol, Amersham Pharmacia Biotech) according to the manufacturer's protocol. Membrane fractions of muscles were incubated at 4° C. for 1 hr with binding buffer (ice-cold phosphate-buffered saline/0.1% bovine serum albumin) containing designated concentrations of [^125I]adiponectin (5,000 cpm/ng protein) plus unlabeled competitors. […] The cells were then washed three times with ice-cold phosphate-buffered saline, lysed in 0.1 N NaOH/0.1% SDS, and the cell-bound radioactivity was determined using a γ-counter (14). Nonspecific binding was determined using a 200-fold excess of unlabeled adiponectin. Specific binding was calculated by subtracting nonspecific binding from the total binding. The values presented in the “Results” represent an average of triplicate determinations of 3-10 experiments.

The mark [3] stands for this setting: skeletal muscle of STZ-treated mice.
Where [4] appears, read: skeletal muscle, STZ-treated mice given insulin.

For the molecule `CN(N=O)C(=O)N[C@H]1C(O)O[C@H](CO)[C@@H](O)[C@@H]1O` (mixture of isomers) [STZ, streptozotocin], the plasma insulin result in test [1] (STZ 200 mg/kg intraperitoneal, mice fasted 6 h, FIG. 2A) was “abolished”. In addition, the plasma glucose entry in test [1] (STZ-treated vs control mice, fasted 6 h, FIG. 2B lanes 1, 2) is given as “significant marked increase”. Moreover, in the test on AdipoR1 mRNA (setting [3]), the “increase in AdipoR1 mRNA” value stood at 103%. Also, the “increase in AdipoR2 mRNA” value in the test on AdipoR2 mRNA (setting [3]) was determined as 38%.
On to “insulin: human regular insulin (Eli Lilly) in vivo; insulin added to hepatocytes and C2C12 myocytes in vitro”, for which the plasma glucose levels entry in test [1] (STZ plus insulin (1 units/kg) compared with STZ alone, FIG. 2B lanes 2, 3) is “reduced”. For the same molecule, the “AdipoR1 mRNA after insulin treatment” value with AdipoR1 mRNA (setting [4]) is “restored nearly completely”. In the test on AdipoR2 mRNA (setting [4]), the “AdipoR2 mRNA after insulin treatment” value is recorded as “restored nearly completely”.

B1: adiponectin: bacterially expressed murine full-length adiponectin; 125I-labeled adiponectin (globular or full-length) in the binding assay (protein)
chain: EDDVTTTEELAPALVPPPKGTCAGWMAGIPGHPGHNGTPGRDGRDGTPGEKGEKGDAGLLGPKGETGDVGMTGAEGPRGFPGTPGRKGEPGEAAYVYRSAFSVGLETRVTVPNVPIRFTKIFYNQQNHYDGSTGKFYCNIPGLYYFSYHITVYMKDVKVSLFKKDKAVLFTYDQYQEKNVDQASGSVLLHLEVGDQVWLQVYGDGDHNGLYADNVNDSTFTGFLLYHDTN
As for B1, the “AMPK activation in skeletal muscle” value is listed as “unable to activate AMPK” in the test with AMPK (ob/ob mice (implied)) and “able to activate AMPK” in the test on AMPK (wild-type mice). The “adiponectin binding to the membrane fractions of skeletal muscle” value in test [2] is “higher binding to the membrane fractions of skeletal muscle of wild-type mice than ob/ob mice”.
